# Reference: patent US4018895A, “Aryloxyphenylpropylamines in treating depression” (Eli Lilly and Company, priority 1975, dated 1977)
# Columns and labels:
# brain serotonin = assay: Prevention of brain serotonin depletion caused by 4-chloroamphetamine; format: in vivo; details: rats injected with 4-chloroamphetamine; drug 15 mg./kg. intraperitoneally; 4 hours later
# Protocol: Following this injection, the protecting drug was injected at a dose of 15 mg./kg. of rat-weight intraperitoneally and determinations of brain serotonin levels were carried out 4 hours later.
# [1] = tested on: hypothermia induced by the injection of apomorphine; assay: Apomorphine hypothermia antagonism test; format: in vivo, mice; details: in words
# Protocol: The apomorphine hypothermia antagonism test is carried out as follows: mice are injected with a dose of apomorphine known to reduce body temperature approximately 4° C. […] The degree of antagonism is expressed as a percent reduction (as compared with controls) of the temperature decrease produced by the injection of the apomorphine. The reserpine hypothermia reversal test is carried out as follows: groups of mice are injected with reserpine and 16.5 hours later are injected intraperitoneally with graded doses of the drug, a different dose level being given to each group of mice. Temperatures are measured at 1 hour after injection of the drug under test and again the effectiveness of the drug is expressed as a percentage decrease in the hypothermia induced by the injection of reserpine as compared with the control group. In the tablets which follow, Table 4 gives the results in the apomorphine antagonism and reserpine reversal hypothermia tests for the secondary amines of this invention. In the table, the first column gives the substituent attached to the oxygen atom at the 3 position of the propylamine chain; columns 2 to 4 the percent antagonism against apomorphine hypothermia at dose levels of 0.3, 1 and 3 mg./kg. and columns 5-7 the percent reversal of reserpine hypothermia at the same dose levels.
# [2] = tested on: hypothermia induced by the injection of reserpine; assay: Reserpine hypothermia reversal test; format: in vivo, mice; details: in words
# Protocol: The apomorphine hypothermia antagonism test is carried out as follows: mice are injected with a dose of apomorphine known to reduce body temperature approximately 4° C. The compound under test is injected 1/2 hour before the injection of the apomorphine and the temperatures measured 1/2 hour after injection. The degree of antagonism is expressed as a percent reduction (as compared with controls) of the temperature decrease produced by the injection of the apomorphine. The reserpine hypothermia reversal test is carried out as follows: groups of mice are injected with reserpine and 16.5 hours later are injected intraperitoneally with graded doses of the drug, a different dose level being given to each group of mice. Temperatures are measured at 1 hour after injection of the drug under test and again the effectiveness of the drug is expressed as a percentage decrease in the hypothermia induced by the injection of reserpine as compared with the control group. In the tablets which follow, Table 4 gives the results in the apomorphine antagonism and reserpine reversal hypothermia tests for the secondary amines of this invention. In the table, the first column gives the substituent attached to the oxygen atom at the 3 position of the propylamine chain; columns 2 to 4 the percent antagonism against apomorphine hypothermia at dose levels of 0.3, 1 and 3 mg./kg. and columns 5-7 the percent reversal of reserpine hypothermia at the same dose levels.
# [3] = tested on: response rates of pigeons; assay: Operant behavior, fixed-ratio, fixed interval schedule; format: in vivo; details: in words
# From the text: In manifesting their psychotropic action, the compounds of this invention also affect the behavior of animals trained in a variety of operant behavior schedules. Again, the activity of compounds of this invention in this type of test parallels that of known antidepressant drugs, particularly desmethylimipramine. […] With pigeons trained under an adjusting ratio schedule, the drugs of this invention affect behavior in the same way as does the marketed antidepressant, desmethylimipramine (DMI). […] The above results are consistent with antidepressant action.
# [4] = tested on: antihistaminic effect, isolated muscle strips; assay: Antihistaminic effect in isolated muscle strips
# [5] = tested on: anticholinergic effect, isolated muscle strips; assay: Anticholinergic effect in isolated muscle strips
# [6] = tested on: antiserotonin effect, isolated muscle strips; assay: Antiserotonin effect in isolated muscle strips
smiles,measurement,setting,value
CNCCCN1c2ccccc2CCc2ccccc21 [desmethylimipramine],Brain serotonin level,brain serotonin,0.44 ± .03 µg/g
same,Activity in antagonism of apomorphine hypothermia,[1],active
same,Activity in reversal of reserpine hypothermia,[2],active
same,"Response rates in fixed-ratio, fixed interval schedule",[3],A similar effect
same,Potency as antihistaminic agent relative to N-methyl 3-(o-methoxyphenoxy)-3-phenylpropylamine,[4],150 times
same,Potency as anticholinergic agent relative to N-methyl 3-(o-methoxyphenoxy)-3-phenylpropylamine,[5],150 times
same,Potency as antiserotonin agent relative to N-methyl 3-(o-methoxyphenoxy)-3-phenylpropylamine,[6],three
